Data as given in patent US10806694B2, “Nanoparticles for photodynamic therapy, X-ray induced photodynamic therapy, radiotherapy, radiodynamic therapy, chemotherapy, immunotherapy, and any combination thereof” (The University of Chicago, priority 2014, dated 2020).

Columns and labels:
HT29 cells = conditions: 8.5 μM dose, 100 J/cm^2 light dose; cited from earlier work
[1] = Fluorescence lifetime by Time-Correlated Single Photon Counting; fluorescence intensity; assay type: physicochemical
Protocol: The fluorescence spectra of H2DBP ligand and DBP-UiO NMOF were taken on a spectrofluorophotometer (RF-5301PC, Shimadzu Corporation, Kyoto, Japan).
Time-domain lifetimes were measured on a ChronosBH lifetime fluorimeter (ISS, Inc., Champaign, Ill., United States of America) using Time-Correlated Single Photon Counting (TCSPC) methods. The fluorimeter contained Becker-Hickl SPC-130 detection electronics and an HPM-100-40 Hybrid PMT detector. Tunable picosecond pulsed excitation was provided by a Fianium SC400-2 supercontiuum laser source with integrated pulse picker and AOTF. Emission wavelengths were selected with bandpass filters (Semrock and Chroma). The Instrument Response Function (IRF) was measured to be approximately 120 ps FWHM in a 1% scattering solution of Ludox LS colloidal silica. Lifetimes were fit via a forward convolution method in the Vinci control and analysis software.
Fluorescence spectra of suspensions of Hf-MOF (0.04 mM of L ligand) in water, DMF, and THF were taken with an excitation wavelength of 368.8 nm. […] Fluorescence lifetimes of Hf-MOF, Zr-MOF, and H2L suspensions in water were also examined.

PHOTOFRIN®
PDT efficacy (HT29 cells): modest PDT efficacy

O=C(O)c1ccc(-c2c3ccccc3c(-c3ccc(C(=O)O)cc3)c3ccccc23)cc1 [H2L, 9,10-anthacenyl bis(benzoic acid)]
excited state lifetime ([1]; DMF solution or suspension): 5.34 ns
weighted fluorescence lifetime ([1]; suspensions in water): 2.0 ns
